A short description of data set [1]: Determination of the hygroscopicity (gravimetric water absorption in desiccator at constant humidity). The data set is classed as physicochemical. As to conditions: 22±2° C., relative humidity of 55%; for Relative water absorption: determined daily over 12 days. Here is the method:
In order to determine the hygroscopicity, solid samples were stored in 25 ml glass beakers in a desiccator under constant humidity. […] The water absorption of the samples was determined gravimetrically once daily over a period of 12 days as the difference in mass (see FIG. 14).
Two spray-dried powders were tested as comparison with crystallisate samples of the crystallisates of the α, β and γ crystal modification.
A DTPMP synthesis product having the quality parameters from Table 4 used as the starting slurry for the crystallisation was spray dried with a Büchi-Mini Spray Dryer B-290.

Data set [2] can be described thus: Bulk density of the samples used for the hygroscopicity test. The data set is classed as physicochemical.
The conditions of data set [3]: about 55% humidity at 22° C.
Protocol: In a further test, the influence of the degree of neutralisation of the phosphonic acid DTPMP on the hygroscopicity was studied, on account of its industrial relevance, especially the sodium salts. To that end, 10 g of sample were stored in four crystallisation dishes of equal size in a desiccator under constant humidity. Via a saturated magnesium nitrate solution with precipitate (about ⅓ precipitate in ⅔ of the solution), about 55% by weight humidity is established at 22° C. The water absorption of the samples was determined gravimetrically twice daily over a period of 22 days as the difference in mass (see FIG. 15).
A crystallisate of the α crystal modification with a foreign acid content of 3.8% by weight chloride and in total 6.6% by weight H3PO4 and H3PO3 per 100% by mass DTPMP was dissolved again. Portions were neutralised with sodium hydroxide solution to pH (1% strength)=1.7 for the Na0.5-DTPMP salt, pH (1% strength)=2.1 for the Na3-DTPMP salt and pH (1% strength)=6.6 for the Na7-DTPMP salt.
The nature of data set [4]: Solubility of DTPMP at room temperature in dependence on the concentration of sodium ions and chloride ions. As to conditions: chloride ions in the range of from 1 to 4% by mass, room temperature (FIG. 13). The format is physicochemical. An excerpt:
FIG. 13: Solubility of DTPMP at room temperature in dependence on the concentration of sodium ions and chloride ions in % by mass.

On to `O=P(O)(O)CN(CCN(CP(=O)(O)O)CP(=O)(O)O)CCN(CP(=O)(O)O)CP(=O)(O)O` [Crystal form α, purified quality, diethylenetriamine penta(methylenephosphonic acid)], for which the Relative water absorption in data set [1] was 0.03 % by mass/day. Also, the “Hygroscopicity / water absorption capacity (in words)” value in data set [1] (listed as crystal modification α) is on record as “consistently low water absorption”. In addition, in data set [2], the Bulk density was 0.36 g/mL.
`O=P(O)(O)CN(CCN(CP(=O)(O)O)CP(=O)(O)O)CCN(CP(=O)(O)O)CP(=O)(O)O` [Crystal form β, purified quality, diethylenetriamine penta(methylenephosphonic acid)] yielded a Relative water absorption in data set [1] of 0.04 % by mass/day. In addition, in data set [1] (listed as crystal modification β), the “Hygroscopicity / water absorption capacity (in words)” value is recorded as “consistently low water absorption”. The compound further yielded a Bulk density in data set [2] of 0.49 g/mL.
In the case of `O=P(O)(O)CN(CCN(CP(=O)(O)O)CP(=O)(O)O)CCN(CP(=O)(O)O)CP(=O)(O)O` [Crystal form γ, purified quality, diethylenetriamine penta(methylenephosphonic acid)], the “Hygroscopicity / water absorption capacity (in words)” value in data set [1] is “by far the lowest hygroscopicity”; in data set [1] (listed as crystal modification γ), “consistently low water absorption”. For the same compound, in data set [1], the Relative water absorption amounted to 0.003 % by mass/day. The compound further had a Bulk density in data set [2] of 0.59 g/mL.
With `O=P(O)(O)CN(CCN(CP(=O)(O)O)CP(=O)(O)O)CCN(CP(=O)(O)O)CP(=O)(O)O` [DTPMP acid, diethylenetriamine penta(methylenephosphonic acid)], the “Appearance of the sample after 22 days” value in data set [3] is “still recognisable”.
As for `O=P(O)(O)CN(CCN(CP(=O)(O)O)CP(=O)(O)O)CCN(CP(=O)(O)O)CP(=O)(O)O` [DTPMP, diethylenetriamine penta(methylenephosphonic acid)], in data set [4], the “Solubility of DTPMP (in words)” value is listed as “further reduction in solubility”.
For `O=P([O-])([O-])CN(CCN(CCN(CP(=O)([O-])[O-])CP(=O)([O-])O)CP(=O)([O-])O)CP(=O)([O-])O.[Na+].[Na+].[Na+].[Na+].[Na+].[Na+].[Na+]` [Na7 salt], in data set [3], the “Appearance of the sample after 22 days” value is “liquefied”. Besides, in data set [3] (after only half the test time (of 22 days)), the “Appearance of the sample after half the test time” value is recorded as “visibly contracting to form a block”.
In data set [1], `O=P(O)(O)CN(CCN(CP(=O)(O)O)CP(=O)(O)O)CCN(CP(=O)(O)O)CP(=O)(O)O` [amorphous powder from spray drying of a DTPMP acid purified ] [reference compound] had a Relative water absorption of 0.29 % by mass/day. In addition, in data set [1] (listed as DTPMP quality purified by recrystallisation and spray dried), the “Hygroscopicity / water absorption capacity (in words)” value is listed as “lower water absorption capacity than the unpurified crude product”. The Bulk density in data set [2] was 0.27 g/mL.
As to `O=P(O)(O)CN(CCN(CP(=O)(O)O)CP(=O)(O)O)CCN(CP(=O)(O)O)CP(=O)(O)O` [amorphous powder from spray drying of an unpurified DTPMP sy] [reference compound], the Relative water absorption in data set [1] was 0.40 % by mass/day. For the same compound, the “Hygroscopicity / water absorption capacity (in words)” value in data set [1] (listed as Spray-dried powders of the unpurified DTPMP synthesis product) is listed as “greatest hygroscopicity”. This compound came in with a Bulk density in data set [2] of 0.27 g/mL.
